According to paper PMC9911596 (Nature Communications, 2023):

Target: T1, Vtc1/Vtc3/Vtc4 complex (VTC complex) (Saccharomyces cerevisiae, UniProt P47075+Q02725, Q02725:Y22F/Q02725:K26A/Q02725:K130A)
T1 construct: full-length subunits co-expressed in Expi293F; Vtc1 C-terminal HA, Vtc3 N-terminal 3xFlag, Vtc4 C-terminal 2xStrep; detergent-purified; 3:1:1 pentamer; with Vacuolar transporter chaperone complex subunit 1
T1 sequence (P47075 1-721): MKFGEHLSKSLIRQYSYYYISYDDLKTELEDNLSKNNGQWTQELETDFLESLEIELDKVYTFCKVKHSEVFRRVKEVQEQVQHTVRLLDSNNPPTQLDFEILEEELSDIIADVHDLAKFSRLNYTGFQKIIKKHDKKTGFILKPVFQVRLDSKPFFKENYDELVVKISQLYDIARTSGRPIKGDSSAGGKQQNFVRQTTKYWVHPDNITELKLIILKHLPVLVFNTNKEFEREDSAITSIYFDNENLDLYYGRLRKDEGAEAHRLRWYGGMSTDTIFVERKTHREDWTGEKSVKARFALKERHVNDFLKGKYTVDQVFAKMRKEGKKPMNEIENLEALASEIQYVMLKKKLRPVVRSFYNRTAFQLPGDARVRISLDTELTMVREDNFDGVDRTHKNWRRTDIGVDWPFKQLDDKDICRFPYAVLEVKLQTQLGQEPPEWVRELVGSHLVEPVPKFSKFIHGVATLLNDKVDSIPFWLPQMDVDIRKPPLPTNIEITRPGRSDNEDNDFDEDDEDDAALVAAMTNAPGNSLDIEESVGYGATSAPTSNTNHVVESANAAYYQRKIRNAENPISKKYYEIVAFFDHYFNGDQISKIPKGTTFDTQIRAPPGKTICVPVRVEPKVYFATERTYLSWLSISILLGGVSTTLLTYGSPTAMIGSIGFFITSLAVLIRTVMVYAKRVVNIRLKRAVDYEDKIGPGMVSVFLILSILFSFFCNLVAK
T1 sequence (Q02725 1-835 Y22F/K26A/K130A): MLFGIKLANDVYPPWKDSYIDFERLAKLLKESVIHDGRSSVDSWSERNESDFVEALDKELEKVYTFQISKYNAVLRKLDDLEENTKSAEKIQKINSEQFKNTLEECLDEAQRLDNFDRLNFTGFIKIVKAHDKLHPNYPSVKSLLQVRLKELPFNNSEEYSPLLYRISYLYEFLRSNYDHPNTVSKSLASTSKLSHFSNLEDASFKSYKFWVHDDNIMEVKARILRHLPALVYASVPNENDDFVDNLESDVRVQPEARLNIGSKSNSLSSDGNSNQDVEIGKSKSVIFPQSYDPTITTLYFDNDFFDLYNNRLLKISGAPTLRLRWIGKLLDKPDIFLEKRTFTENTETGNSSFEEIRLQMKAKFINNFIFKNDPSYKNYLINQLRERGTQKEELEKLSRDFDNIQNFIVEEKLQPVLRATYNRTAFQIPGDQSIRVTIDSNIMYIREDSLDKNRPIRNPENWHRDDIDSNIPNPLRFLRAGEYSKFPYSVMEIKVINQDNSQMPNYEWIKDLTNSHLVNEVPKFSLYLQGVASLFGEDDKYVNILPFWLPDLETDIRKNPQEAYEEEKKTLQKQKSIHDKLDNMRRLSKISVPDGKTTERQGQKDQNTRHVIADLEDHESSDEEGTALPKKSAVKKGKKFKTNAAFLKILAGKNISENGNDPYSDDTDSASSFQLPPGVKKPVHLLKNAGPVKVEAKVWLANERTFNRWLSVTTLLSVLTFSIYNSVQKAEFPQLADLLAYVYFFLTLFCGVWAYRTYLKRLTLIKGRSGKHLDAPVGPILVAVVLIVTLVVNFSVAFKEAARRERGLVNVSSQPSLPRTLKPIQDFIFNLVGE
T1 sequence (P40046 2-129 partner): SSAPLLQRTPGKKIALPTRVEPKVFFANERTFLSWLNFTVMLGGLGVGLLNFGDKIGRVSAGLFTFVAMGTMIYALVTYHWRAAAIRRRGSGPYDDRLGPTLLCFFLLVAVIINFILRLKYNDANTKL
Experiment: polyP synthesis, TBE-PAGE
Assay type: biochemical
Settings: activator; 15 mM ATP, 10 mM MgCl2, 1 mM MnCl2, 0.5 mM pyrophosphate, 27 °C, 4 h; SPX PBC mutant

## O=P(O)(O)O[C@H]1[C@H](OP(=O)(O)O)[C@@H](OP(=O)(O)O)[C@H](OP(=O)(O)O)[C@@H](OP(=O)(O)O)[C@H]1OP(=O)(O)O [InsP6]
  polyP synthesis, TBE-PAGE: residues had little effect on polyP synthesis
